US11957699B2, “Composition comprising punicalagin for inhibiting PAR2 activity” (INDUSTRY-ACADEMIC COOPERATION FOUNDATION, YONSEI UNIVERSITY, priority 2018, dated 2024)

Key:
NIH3T3 cells = experiment: Cell viability of NIH3T3 cells; format: cell-based; conditions: up to 30 μM
Procedure: In order to determine the toxicity of punicalagin, the effect of NIH3T3 cells on cell viability and the weight change of 8-week-old wild-type mice were evaluated, and the heart, liver, and lung were extracted from 30-week-old lupus mice and were histologically evaluated by performing hematoxylin-eosin staining.

PAR2 [1] = target: T1, PAR2 (Homo sapiens, UniProt P55085); experiment: Cytokine secretion by PAR2-AP in primary cultured human conjunctival epithelial cells (ELISA); format: cell-based; set-up: endogenous in cells; conditions: 10 μM, 100 μM PAR2-AP, 24 hours
T1 sequence (P55085 26-397): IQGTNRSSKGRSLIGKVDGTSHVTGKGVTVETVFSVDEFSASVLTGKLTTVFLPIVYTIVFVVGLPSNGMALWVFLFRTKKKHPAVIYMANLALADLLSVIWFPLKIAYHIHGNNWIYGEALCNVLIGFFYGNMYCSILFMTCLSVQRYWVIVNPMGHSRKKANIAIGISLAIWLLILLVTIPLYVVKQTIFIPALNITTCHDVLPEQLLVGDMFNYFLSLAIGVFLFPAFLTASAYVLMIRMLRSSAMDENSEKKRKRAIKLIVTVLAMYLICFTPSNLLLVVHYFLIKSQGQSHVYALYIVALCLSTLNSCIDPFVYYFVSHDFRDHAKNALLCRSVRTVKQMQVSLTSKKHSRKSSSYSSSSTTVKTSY
Procedure: In order to determine whether punicalagin inhibits cytokine secretion by PAR2 receptor activity, human conjunctival epithelial cells, which were primary cultured and differentiated in a transwell, were treated with 100 μM PAR2-AP or 10 μM punicalagin for 24 hours, and then, by collecting the culture medium from the apical membrane, cytokine concentrations were measured by the enzyme-linked immunosorbent assay.

PAR2 [2] = target: T1, PAR2; experiment: Increase of intracellular calcium ions by PAR2-AP in HT-29 cells (Fluo4-NW); format: cell-based; set-up: endogenous in cells; host or cells: HT-29 colon cancer cells; conditions: HT-29 cells
Procedure: After colon cancer cells (HT-29) were cultured for 48 hours in a 96-well micro plate with the RPMI1640 culture medium, the culture medium was removed, and then, 100 μL of the Flou4-NW dye mixture was added. While blocking the light, it was stabilized for 1 hour such that a calcium ion dye (Ca^2+ dye) was loaded into the cells. Next, after treating punicalin (0, 3, 10, and 30 μM), punicalagin (0, 0.3, 1, 2, 3, and 10 μM), or ellagic acid (0, 30, and 100 μM) for 10 minutes by concentration, each well was treated with 30 μM PAR2-AP (PAR2-activating peptide, SLIGRL-NH2) to measure the concentration change in intracellular calcium ions.

carbonic anhydrase = conditions: cited from earlier work
PAR2 [3] = target: T1, PAR2; experiment: Cellular signal changes and inflammatory cytokine secretion by PAR2 receptor activity in human glomerular podocytes; format: cell-based; set-up: endogenous in cells
Procedure: The effects of punicalagin on cellular signal changes and inflammatory cytokine secretion by PAR2 receptor activity in human glomerular podocytes were evaluated.

[4] = test system: C57BL6N mice with colitis induced by DSS; experiment: Colitis induced by dextran sodium sulfate (DSS) in mice; format: in vivo
Procedure: In 7-week-old C57BL6N mice, it was confirmed whether punicalagin has an effect of alleviating symptoms of colitis induced by dextran sodium sulfate (DSS).
Specifically, while dextran sodium sulfate (DSS), which is a colitis-causing substance, was diluted in water at 2.5% and was fed to the mice for 9 days, 1 mg/kg (n=4), 3 mg/kg (n=4), or 10 mg/kg (n=5) punicalagin was dissolved in physiological saline and intraperitoneally injected once every 48 hours, and the mice were weighed once a day. As control groups, a group which was fed only with 2.5% DSS (n=4), a group which was not fed with DSS and was not injected with punicalagin (n=3), and a group which was not fed with DSS and was injected with punicalagin at 10 mg/kg (n=3) were established, and weight changes, tissue damage, proinflammatory cytokine concentrations, and the like were measured.

PAR2 [5] = target: T1, PAR2; experiment: Specificity: intracellular calcium increase by trypsin, PAR1-AP, thrombin and ATP in HT-29 cells; format: cell-based; set-up: endogenous in cells; host or cells: HT-29 colon cancer cells
Procedure: After colon cancer cells (HT-29) were cultured for 48 hours in a 96-well micro plate with the RPMI1640 culture medium, the culture medium was removed, and then, 100 μL of the Flou4-NW dye mixture was added. While blocking the light, it was stabilized for 1 hour such that a calcium ion dye (Ca^2+ dye) was loaded into the cells. Next, punicalagin was pretreated by concentration (0, 0.3, 1, 3, 10, 30, and 100 μM) for 10 minutes, and by treating 100 nM trypsin, it was measured for about 70 seconds at 1-second intervals to determine whether the concentration changes of intracellular calcium ions by PAR2 activation were an inhibitory effect by punicalagin (panel A of FIG. 2). In the same manner as the above, after punicalagin was pretreated by concentration (0, 1, 3, 10, 30, 100, and 300 μM), by treating 100 μM PAR1-AP (panel B of FIG. 2), 10 unit/mL thrombin (panel C of FIG. 2), and 100 μM ATP (panel D of FIG. 2), the concentration changes in intracellular calcium ions were measured for 70 seconds at 1-second intervals in each case.
In addition, it was compared how much it inhibited an increase in the concentration of intracellular calcium ions by trypsin, PAR1-AP, PAR2-AP, thrombin, and ATP depending on the concentration of punicalagin.

[6] = 1, 3 or 10 mg/kg intraperitoneally

O=CC1OC(=O)c2cc(O)c(O)c(O)c2-c2c(cc(O)c(O)c2O)C(=O)OC1C1OC(=O)c2cc(O)c(O)c(O)c2-c2c(O)c(O)c3oc(=O)c4c(c(O)c(O)c5oc(=O)c2c3c54)-c2c(cc(O)c(O)c2O)C(=O)OCC1O (centres unmarked) [punicalagin, 1,2,3,11,12,13-hexahydroxy-5,10-dioxo-8-[3,4,5,11,17,18,19,22,23,34,35-undecahydroxy-8,14,26,31-tetraoxo-9,13,25,32-tetraoxaheptacyclo[25.8.0.0^2,7.0^15,20.0^21,30.0^24,29.0^28,33]pentatnaconta-1(35),2,4,6,15,17,19,21,23,27,29,33-dodecaen-10-yl]-5,7,8,10-tetrahydrodibenzo[f,h][1,4]dioxecin-7-carbaldehyde]
effect on viability of NIH3T3 cells (NIH3T3 cells): no effect
inhibition of GMCSF induced by PAR2-AP (PAR2 [1]): 66.8%
inhibition of interleukin-6 (IL-6) induced by PAR2-AP (PAR2 [1]): 59.5%
inhibition of interleukin-8 (IL-8) induced by PAR2-AP (PAR2 [1]): 61.6%
IC50 (PAR2 [2]; 30 μM PAR2-AP, 10 minutes pretreatment, read-out: IC50, inhibition of the PAR2 receptor (intracellular calcium increase by PAR2-AP)): 1450 nM
strength of PAR2 receptor inhibition compared to punicalin (PAR2 [2]; PAR2-AP): ≥ 10 times
activity against carbonic anhydrase (carbonic anhydrase): inhibitory activity
expression amounts of VCAM-1 and ICAM-1 increased by PAR2 receptor activity (PAR2 [3]): significantly reduced
expressions of inflammatory cytokines (IL-6, IFN-γ, TNF-α, and IL-8) (PAR2 [3]; concentration-dependent): significantly reduced
phosphorylation of ERK 1/2 according to PAR2 receptor activity by PAR2-AP (PAR2 [3]; concentration-dependent): inhibited
phosphorylation of NF-κB P65 according to PAR2 receptor activity (PAR2 [3]; concentration-dependent): inhibited
colon tissue damage caused by DSS [4, 6]: inhibited
concentration of proinflammatory cytokines increased by DSS [4, 6]: significantly reduced
length of the colon reduced by DSS [4, 6]: recovered
weight loss by DSS ([4]; 1, 3 or 10 mg/kg intraperitoneally once every 48 hours, 2.5% DSS 9 days): inhibited weight loss by DSS in a concentration-dependent manner
inhibition of increase in concentration of intracellular calcium ions (PAR2 [5]; 100 nM trypsin, 100 μM PAR1-AP, 10 unit/mL thrombin or 100 μM ATP, increasing punicalagin concentration): effect of inhibiting an increase in the concentration of calcium ions was also improved
selectivity for inhibition of PAR2 activity compared to ATP, thrombin, and PAR1-AP (PAR2 [5]; calcium increase): ≥ 10 times
